From patent US10793536B2, “Vortioxetine pamoic acid salt and crystal form thereof” (SHANGHAI SYNERGY PHARMACEUTICAL SCIENCES CO., LTD, priority 2016, dated 2020)
Like-named read-outs stand apart in the source and are kept apart here.

Key:
[1] = Wistar rat, single intramuscular injection 45.6 mg/kg; for AUC(0-t), Mean / AUC(0-∞), Mean / Cmax, Mean / MRT(0-∞), Mean / Tmax, Mean / t1/2z, Mean: non-compartment model
Method: Weighing 75.1 mg of each of crystal forms A, B and D of vortioxetine semi pamoic acid, adding 1 mL diluent (water for Injection containing 1% CMC-Na and 5% mannitol) to each of them, and whirling for 2 min to obtain 3 suspensions (pH˜7) of 3 crystal forms with a concentration of 45.6 mg/mL.
Drugs are administered to 9 male clean Wistar rats (Shanghai Sippr BK Laboratory Animals Ltd) with a weight range of 183.0˜186.3 g in accordance with Table 4.
Collecting blood samples by jugular puncture, about 0.2 mL for each sample, resisting against blood coagulation using heparin sodium, placing the collected blood samples on ice, wherein the blood collecting time is as follows: 30 min, 1 hrs, 2 hrs, 4 hrs, 8 hrs, 24 hrs, 48 hrs, 72 hrs, 120 hrs, 168 hrs, 216 hrs, 264 hrs, 312 hrs, 360 hrs, 504 hrs, and 672 hrs […] after administration of drug; placing the collected blood samples on ice, and separating the blood plasma centrifugally (centrifugal condition: 8,000 revolutions/min, 6 minutes, 2-8° C.); storing the collected blood plasma at −70° C. before analysis.
Separately calculating the pharmacokinetic parameters AUC0-t, AUC0-∞, MRT0-∞, Cmax, Tmax, T1/2 etc. of the tested samples using a non-compartment model for pharmacokinetic calculation software WinNonlin5.2 according to the blood concentration data of the drug. For samples with a concentration lower than the quantitative lower limit, when the pharmacokinetic parameters are calculated, the samples sampled before reaching Cmax should be calculated at zero value; after reaching Cmax, the samples at the sample point should be calculated by “below the limit of quantitation” (BLQ).

[2] = single dose of vortioxetine injected to the body of the rat; FDA pharmacological summary document No. 204447Orig 1s000; cited from earlier work

Structure (SMILES)	Concentration of vortioxetine in plasma, Mean ([1]; blood sampling time 0.5 h)	Concentration of vortioxetine in plasma, Mean ([1]; blood sampling time 1 h)	Concentration of vortioxetine in plasma, Mean ([1]; blood sampling time 2 h)	Concentration of vortioxetine in plasma, Mean ([1]; blood sampling time 4 h)	Concentration of vortioxetine in plasma, Mean ([1]; blood sampling time 8 h)	Concentration of vortioxetine in plasma, Mean ([1]; blood sampling time 24 h)	Concentration of vortioxetine in plasma, Mean ([1]; blood sampling time 48 h)	Concentration of vortioxetine in plasma, Mean ([1]; blood sampling time 72 h)	Concentration of vortioxetine in plasma, Mean ([1]; blood sampling time 120 h)	Concentration of vortioxetine in plasma, Mean ([1]; blood sampling time 168 h)	Concentration of vortioxetine in plasma, Mean ([1]; blood sampling time 216 h)	Concentration of vortioxetine in plasma, Mean ([1]; blood sampling time 264 h)	Concentration of vortioxetine in plasma, Mean ([1]; blood sampling time 312 h)	Concentration of vortioxetine in plasma, Mean ([1]; blood sampling time 360 h)	Concentration of vortioxetine in plasma, Mean ([1]; blood sampling time 504 h)	Concentration of vortioxetine in plasma, Mean ([1]; blood sampling time 672 h)	AUC(0-t), Mean [1]	AUC(0-∞), Mean [1]	Cmax, Mean [1]	MRT(0-∞), Mean [1]	also measured
Cc1ccc(Sc2ccccc2N2CCNCC2)c(C)c1.Cc1ccc(Sc2ccccc2N2CCNCC2)c(C)c1.O=C(O)c1cc2ccccc2c(Cc2c(O)c(C(=O)O)cc3ccccc23)c1O [Crystal form A of vortioxetine semi pamoic acid salt] [Crystal Form a Vortioxetine Semi Pamoic Acid Salt]	3.12 ng/mL	5.80 ng/mL	8.41 ng/mL	10.75 ng/mL	16.22 ng/mL	15.77 ng/mL	8.70 ng/mL	11.68 ng/mL	35.38 ng/mL	31.34 ng/mL	13.35 ng/mL	6.29 ng/mL	4.07 ng/mL	2.26 ng/mL	1.73 ng/mL	1.88 ng/mL	6143.08 ng·h/mL	6503.21 ng·h/mL	38.18 ng/mL	227.18 h	Tmax, Mean [1]: 136.00 h; t1/2z, Mean [1]: 126.06 h
Cc1ccc(Sc2ccccc2N2CCNCC2)c(C)c1.Cc1ccc(Sc2ccccc2N2CCNCC2)c(C)c1.O=C(O)c1cc2ccccc2c(Cc2c(O)c(C(=O)O)cc3ccccc23)c1O [Crystal form B of vortioxetine semi pamoic acid salt] [Crystal Form B Vortioxetine Semi Pamoic Acid Salt]	2.14 ng/mL	4.56 ng/mL	10.17 ng/mL	18.05 ng/mL	21.12 ng/mL	17.67 ng/mL	14.56 ng/mL	15.65 ng/mL	32.47 ng/mL	40.21 ng/mL	24.00 ng/mL	15.19 ng/mL	10.55 ng/mL	6.02 ng/mL	2.62 ng/mL	2.06 ng/mL	8588.42 ng·h/mL	8939.49 ng·h/mL	40.21 ng/mL	226.30 h	Tmax, Mean [1]: 168 h; t1/2z, Mean [1]: 116.6 h
Cc1ccc(Sc2ccccc2N2CCNCC2)c(C)c1.Cc1ccc(Sc2ccccc2N2CCNCC2)c(C)c1.O=C(O)c1cc2ccccc2c(Cc2c(O)c(C(=O)O)cc3ccccc23)c1O [Crystal form D of vortioxetine semi pamoic acid salt] [Crystal Form D Vortioxetine Semi Pamoic Acid Salt]	4.34 ng/mL	8.10 ng/mL	11.59 ng/mL	15.37 ng/mL	23.28 ng/mL	24.08 ng/mL	14.11 ng/mL	19.52 ng/mL	41.99 ng/mL	46.20 ng/mL	16.02 ng/mL	5.66 ng/mL	3.66 ng/mL	2.03 ng/mL	1.56 ng/mL	1.69 ng/mL	7856.57 ng·h/mL	8392.02 ng·h/mL	48.65 ng/mL	162.48 h	Tmax, Mean [1]: 152.00 h; t1/2z, Mean [1]: 228.84 h
Cc1ccc(Sc2ccccc2N2CCNCC2)c(C)c1 [vortioxetine, 1-[2-(2,4-dimethylphenylthiorueaalkyl)phenyl] piperazine]																					half-life period t1/2 [2]: more than two hours
